Laboratory results taken from patent US20070254312A1, “Protein Kinase Inhibitors and Methods for Identiying Same” (priority 2004, published 2007).
Starred links: 1 amine or outer side, 2 acyl side, 3 side chain; linkers in the order of their positions; H or OH if unused. Non-standard residues stand in square brackets, D forms with d. Residues, ends and D or L forms follow the SMILES beside them. *: point of attachment. Benzoyl(4-(pyrrol-1-yl)) = O=C(c1ccc(-n2cccc2)cc1)*; Phenylacetyl(3,4-Cl2) = O=C(Cc1ccc(Cl)c(Cl)c1)*; Cysteamide = C(CS[*:3])N[*:1]; Dap = NC[C@H](N)C(=O)O

Tests used:
[1] = biological target: T1, PKCτ (Homo sapiens, UniProt P41743); test: PKC isoform assay, Example 1; format: biochemical
T1 construct: purchased Pan Vera
T1 sequence (P41743 1-596): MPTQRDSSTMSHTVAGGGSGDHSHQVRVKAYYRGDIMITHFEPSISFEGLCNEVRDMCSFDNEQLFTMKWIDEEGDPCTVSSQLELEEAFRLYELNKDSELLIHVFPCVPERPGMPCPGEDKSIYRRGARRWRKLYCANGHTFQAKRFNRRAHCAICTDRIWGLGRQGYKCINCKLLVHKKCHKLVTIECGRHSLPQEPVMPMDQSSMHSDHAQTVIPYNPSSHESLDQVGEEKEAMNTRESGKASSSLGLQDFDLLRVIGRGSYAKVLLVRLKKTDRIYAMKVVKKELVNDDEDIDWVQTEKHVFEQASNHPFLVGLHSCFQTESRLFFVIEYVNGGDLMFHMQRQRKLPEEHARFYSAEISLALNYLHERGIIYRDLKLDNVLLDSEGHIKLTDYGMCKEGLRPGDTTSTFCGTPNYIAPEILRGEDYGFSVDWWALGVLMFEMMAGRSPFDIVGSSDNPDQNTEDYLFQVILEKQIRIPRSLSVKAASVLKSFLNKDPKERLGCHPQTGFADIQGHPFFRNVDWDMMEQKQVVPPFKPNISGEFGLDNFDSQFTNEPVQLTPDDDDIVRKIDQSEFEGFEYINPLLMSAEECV
From the text: (§1) Protein Kinase C Assay (general). The peptides Ac-Ser-Phe-Arg-Arg-Arg-NH2 (for PKC α, β and γ) and acetyl-[…]NH2 (for PKC ε and ζ) were used as substrates.

[2] = biological target: T2, PKC ι (Homo sapiens, UniProt P41743); details: literature values; relative to most potently inhibited isoform (=1); cited from earlier work
T2 construct: purchased Panvera
T2 sequence (P41743 1-596): T1 sequence (P41743 1-596)

[3] = biological target: T3, PKCδ (Homo sapiens, UniProt Q05655); design: purchased Panvera; details: literature values; relative to most potently inhibited isoform (=1); cited from earlier work
T3 sequence (Q05655 whole entry, canonical isoform): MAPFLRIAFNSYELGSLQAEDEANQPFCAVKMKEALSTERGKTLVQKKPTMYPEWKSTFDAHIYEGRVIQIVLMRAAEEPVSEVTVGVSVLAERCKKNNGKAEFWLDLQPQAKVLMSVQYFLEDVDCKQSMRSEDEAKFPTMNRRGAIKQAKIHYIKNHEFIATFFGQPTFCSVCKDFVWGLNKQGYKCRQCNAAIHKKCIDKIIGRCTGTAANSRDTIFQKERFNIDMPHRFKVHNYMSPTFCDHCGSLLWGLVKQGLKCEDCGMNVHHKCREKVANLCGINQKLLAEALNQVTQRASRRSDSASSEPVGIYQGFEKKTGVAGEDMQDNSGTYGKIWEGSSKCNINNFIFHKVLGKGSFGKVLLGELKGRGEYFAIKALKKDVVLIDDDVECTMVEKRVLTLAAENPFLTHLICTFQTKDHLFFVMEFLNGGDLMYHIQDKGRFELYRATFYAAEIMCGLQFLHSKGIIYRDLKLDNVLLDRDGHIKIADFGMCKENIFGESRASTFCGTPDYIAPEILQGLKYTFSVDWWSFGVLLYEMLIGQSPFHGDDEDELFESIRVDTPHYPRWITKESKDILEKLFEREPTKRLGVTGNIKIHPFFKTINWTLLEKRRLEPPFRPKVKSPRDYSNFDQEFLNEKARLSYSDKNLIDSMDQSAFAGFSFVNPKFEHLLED

[4] = biological target: T4, PKCη (Homo sapiens, UniProt P24723); design: purchased Panvera; details: literature values; relative to most potently inhibited isoform (=1); cited from earlier work
T4 sequence (P24723 whole entry, canonical isoform): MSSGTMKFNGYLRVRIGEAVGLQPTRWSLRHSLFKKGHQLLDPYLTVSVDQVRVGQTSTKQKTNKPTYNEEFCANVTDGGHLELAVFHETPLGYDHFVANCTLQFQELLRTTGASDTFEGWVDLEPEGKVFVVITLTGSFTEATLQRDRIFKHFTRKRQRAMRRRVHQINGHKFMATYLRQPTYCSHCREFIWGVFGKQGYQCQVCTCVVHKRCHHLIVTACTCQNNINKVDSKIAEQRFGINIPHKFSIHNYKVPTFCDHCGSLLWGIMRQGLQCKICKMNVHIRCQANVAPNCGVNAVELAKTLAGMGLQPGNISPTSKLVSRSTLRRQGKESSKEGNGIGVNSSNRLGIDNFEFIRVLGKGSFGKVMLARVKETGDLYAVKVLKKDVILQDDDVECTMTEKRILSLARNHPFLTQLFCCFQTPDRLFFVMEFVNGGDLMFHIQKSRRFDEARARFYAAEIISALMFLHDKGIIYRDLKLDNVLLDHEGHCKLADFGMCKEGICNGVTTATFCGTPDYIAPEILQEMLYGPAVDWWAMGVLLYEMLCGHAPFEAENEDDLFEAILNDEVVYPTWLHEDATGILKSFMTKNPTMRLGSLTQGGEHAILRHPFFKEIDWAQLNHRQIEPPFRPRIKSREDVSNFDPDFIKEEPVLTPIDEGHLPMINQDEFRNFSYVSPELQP

[5] = biological target: PKC β1 (Homo sapiens, UniProt P05771); details: literature values; relative to most potently inhibited isoform (=1); cited from earlier work
PKC β1, sequence (P05771 whole entry, canonical isoform): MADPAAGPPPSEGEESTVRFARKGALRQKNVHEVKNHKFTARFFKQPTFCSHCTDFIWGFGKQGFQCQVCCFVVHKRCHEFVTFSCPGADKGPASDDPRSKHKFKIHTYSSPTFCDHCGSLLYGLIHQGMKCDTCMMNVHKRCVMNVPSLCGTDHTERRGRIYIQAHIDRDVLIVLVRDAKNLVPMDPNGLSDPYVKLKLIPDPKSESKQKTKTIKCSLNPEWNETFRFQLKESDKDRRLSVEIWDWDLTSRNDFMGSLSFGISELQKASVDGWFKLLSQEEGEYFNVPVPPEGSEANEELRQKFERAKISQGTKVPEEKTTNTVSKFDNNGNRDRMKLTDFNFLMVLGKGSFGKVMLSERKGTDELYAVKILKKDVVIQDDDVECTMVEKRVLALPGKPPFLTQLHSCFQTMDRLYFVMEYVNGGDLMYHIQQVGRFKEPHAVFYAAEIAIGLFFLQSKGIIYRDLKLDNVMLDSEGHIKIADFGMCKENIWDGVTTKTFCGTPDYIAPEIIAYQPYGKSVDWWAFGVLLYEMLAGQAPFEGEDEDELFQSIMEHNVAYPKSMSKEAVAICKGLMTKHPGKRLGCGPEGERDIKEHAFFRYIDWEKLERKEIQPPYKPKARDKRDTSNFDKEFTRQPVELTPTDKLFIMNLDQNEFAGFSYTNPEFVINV

[6] = biological target: PKCθ (Homo sapiens, UniProt Q04759); test: PKC isoform assay, Example 1; format: biochemical; design: purchased Pan Vera
PKCθ, sequence (Q04759 whole entry, canonical isoform): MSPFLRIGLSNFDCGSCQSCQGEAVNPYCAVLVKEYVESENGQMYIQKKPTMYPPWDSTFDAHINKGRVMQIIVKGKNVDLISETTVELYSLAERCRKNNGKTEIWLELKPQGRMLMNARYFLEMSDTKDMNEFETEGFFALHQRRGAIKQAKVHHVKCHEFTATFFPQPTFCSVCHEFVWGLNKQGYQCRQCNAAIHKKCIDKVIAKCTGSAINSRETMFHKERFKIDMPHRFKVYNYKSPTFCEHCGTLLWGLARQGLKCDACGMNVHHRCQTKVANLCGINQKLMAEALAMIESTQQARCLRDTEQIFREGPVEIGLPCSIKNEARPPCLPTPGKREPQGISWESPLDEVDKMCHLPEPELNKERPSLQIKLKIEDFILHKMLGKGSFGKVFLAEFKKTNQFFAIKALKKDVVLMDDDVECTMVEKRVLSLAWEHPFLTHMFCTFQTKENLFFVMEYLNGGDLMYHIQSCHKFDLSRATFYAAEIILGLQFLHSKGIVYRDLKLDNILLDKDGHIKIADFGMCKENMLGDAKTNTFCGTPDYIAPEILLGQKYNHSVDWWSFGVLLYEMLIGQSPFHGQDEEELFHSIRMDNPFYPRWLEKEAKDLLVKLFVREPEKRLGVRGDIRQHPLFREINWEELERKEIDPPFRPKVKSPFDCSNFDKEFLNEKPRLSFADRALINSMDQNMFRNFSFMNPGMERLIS
From the text: as §1

[7] = biological target: T3, PKCδ; test: PKC isoform assay, Example 1; format: biochemical; design: purchased Pan Vera
From the text: as §1

[8] = biological target: T4, PKCη; test: PKC isoform assay, Example 1; format: biochemical; design: purchased Pan Vera
From the text: as §1

[9] = biological target: T5, PKCβ (Homo sapiens, UniProt P05771); test: PKC isoform assay, Example 1; format: biochemical
T5 construct: purchased Pan Vera
T5 sequence (P05771 whole entry, canonical isoform): as the sequence (P05771 whole entry, canonical isoform) above
Experimental: (§2) Protein Kinase C Assay (general). The peptides […] (for PKC α, β and γ) and acetyl-[…] (for PKC ε and ζ) were used as substrates. […] Total reaction volume was 50 μL. […] Following an additional 5 min incubation at ambient temperature, 75 μL from each reaction well was transferred into each well of a Unifilter (P81 cellulose phosphate paper) assay plate and washed four times with 0.1% phosphoric acid in water. […] IC50 values were calculated using GraFit (Erithacus Software Limited) and Ki values were calculated using Enzyme Kinetics, SigmaPlot (SPSS Inc.)

[10] = biological target: PKCα (Homo sapiens, UniProt P17252); test: Protein Kinase Cα radioactive assay, peptide substrate Ac-Ser-Phe-Arg-Arg-Arg-NH2 (Example 1); format: biochemical; design: purchased Pan Vera; details: versus variable peptide substrate
Experimental: as §2, with “Inc.) […] An analogous protocol was employed for peptide 4 versus variable [[…]]. […] An analogous protocol was employed for peptide 4 versus variable [ATP]. Protein Kinase Cα Assay (Ki determination for peptide 6 versus variable […] substrate). […] The reaction was initiated as described above. […] Following an additional 5 min incubation at ambient temperature, 75 μL from each reaction well was transferred into each well of a Unifilter (P81 cellulose phosphate paper) assay plate and washed four times with 0.1% phosphoric acid in water. […] IC50 values were calculated using GraFit (Erithacus Software Limited) and Ki values were calculated using Enzyme Kinetics, SigmaPlot (SPSS Inc.)” for “Inc.)”

[11] = biological target: T6, PKCε (Homo sapiens, UniProt Q02156); design: purchased Panvera; details: literature values; relative to most potently inhibited isoform (=1); cited from earlier work
T6 sequence (Q02156 1-737): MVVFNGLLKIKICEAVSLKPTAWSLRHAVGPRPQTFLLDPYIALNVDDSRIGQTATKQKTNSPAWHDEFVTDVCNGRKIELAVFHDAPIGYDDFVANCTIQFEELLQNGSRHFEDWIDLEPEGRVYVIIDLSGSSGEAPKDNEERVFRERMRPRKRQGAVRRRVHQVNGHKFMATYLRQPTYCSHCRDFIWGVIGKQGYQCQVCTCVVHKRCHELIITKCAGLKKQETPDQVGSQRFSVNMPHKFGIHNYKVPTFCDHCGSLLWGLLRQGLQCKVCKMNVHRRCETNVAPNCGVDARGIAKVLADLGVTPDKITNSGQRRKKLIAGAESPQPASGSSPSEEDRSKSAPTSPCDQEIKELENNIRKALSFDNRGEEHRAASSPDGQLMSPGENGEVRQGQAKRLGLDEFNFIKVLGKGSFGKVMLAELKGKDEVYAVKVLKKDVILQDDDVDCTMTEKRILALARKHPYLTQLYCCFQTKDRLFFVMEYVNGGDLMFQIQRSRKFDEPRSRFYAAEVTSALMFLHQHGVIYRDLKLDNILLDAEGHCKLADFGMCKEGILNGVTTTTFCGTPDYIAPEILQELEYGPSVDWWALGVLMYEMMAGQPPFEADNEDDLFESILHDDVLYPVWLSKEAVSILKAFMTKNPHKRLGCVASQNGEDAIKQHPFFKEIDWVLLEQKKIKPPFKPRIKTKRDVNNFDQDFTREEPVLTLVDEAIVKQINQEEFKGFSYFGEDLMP

[12] = biological target: PKCγ (Homo sapiens, UniProt P05129); design: purchased Panvera; details: literature values; relative to most potently inhibited isoform (=1); cited from earlier work

## CC(C)C[C@H](NC(=O)[C@H](C)NC(=O)CNC(=O)[C@H](CCCNC(=N)N)NC(=O)[C@H](CCCNC(=N)N)NC(=O)[C@H](C)NC(=O)Cc1ccc(Cl)c(Cl)c1)C(=O)N[C@@H](CCCNC(=N)N)C(=O)N[C@@H](CNC(=O)c1ccc(-n2cccc2)cc1)C(=O)N[C@@H](C)C(=O)NCCS [Compound 6] ({Phenylacetyl(3,4-Cl2)}-ARRGALR[Dap](Benzoyl(4-(pyrrol-1-yl)))A-Cysteamide)
[1]
  selectivity for PKCα versus PKCτ: 940 fold
[2]
  Fold selectivity (IC50), PKC ι: 940 fold
[3]
  Fold selectivity (IC50), PKC δ: 2730 fold
[4]
  Fold selectivity (IC50), PKC η: 1310 fold
[5]
  Fold selectivity (IC50), PKC β1: 385 fold
[6]
  selectivity for PKCα versus PKCθ: 1210 fold
[7]
  selectivity for PKCα versus PKCδ: 2730 fold
[8]
  selectivity for PKCα versus PKCη: 1310 fold
[9]
  selectivity for PKCα versus PKCβ: 385 fold
[10]
  Ki: 0.8 nM
[11]
  Fold selectivity (IC50), PKC ε: 600 fold
[12]
  Fold selectivity (IC50), PKC γ: 580 fold
